# According to patent US8192962B2, “Processes for detecting toxic substances” (Daikin Industries, Ltd., priority 2001, dated 2012):
# Test system: Unknown protein yeast genes
# Experiment: DNA chip mRNA expression in yeast, unknown protein yeast genes (Table 1)
# Assay type: cell-based, Saccharomyces cerevisiae S288C
# How it was run: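 Ratios compare mRNA levels in stressed and control S. cerevisiae. Each toxicant was applied for two hours to log-phase cultures at 25° C. at a sub-lethal, growth-inhibiting level; fluorescent cDNA (Cy3- or Cy5-dUTP) was hybridized to a genome-wide yeast chip for over 12 h at 65° C.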
smiles,measurement,setting,value
"Oc1cc(Cl)c(Cl)cc1Cl [(6), 2,4,5-trichlorophenol]",The level of expressed mRNA in the presence of chemical substance/The level of expressed mRNA in the absence of chemical substance,"yeast gene YKL086W, incubated two hours with chemical substance",1.0
same,The level of expressed mRNA in the presence of chemical substance/The level of expressed mRNA in the absence of chemical substance,"yeast gene YKL151C, incubated two hours with chemical substance",2.0
same,The level of expressed mRNA in the presence of chemical substance/The level of expressed mRNA in the absence of chemical substance,"yeast gene YKL153W, incubated two hours with chemical substance",2.9
same,The level of expressed mRNA in the presence of chemical substance/The level of expressed mRNA in the absence of chemical substance,"yeast gene YKL195W, incubated two hours with chemical substance",2.5
same,The level of expressed mRNA in the presence of chemical substance/The level of expressed mRNA in the absence of chemical substance,yeast gene YKR018C,1.7
same,The level of expressed mRNA in the presence of chemical substance/The level of expressed mRNA in the absence of chemical substance,yeast gene YKR049C,3.0
same,The level of expressed mRNA in the presence of chemical substance/The level of expressed mRNA in the absence of chemical substance,"yeast gene YKR091W, incubated two hours with chemical substance",1.0
same,The level of expressed mRNA in the presence of chemical substance/The level of expressed mRNA in the absence of chemical substance,"yeast gene YLR054C, incubated two hours with chemical substance",1.2
same,The level of expressed mRNA in the presence of chemical substance/The level of expressed mRNA in the absence of chemical substance,"yeast gene YLR149C, incubated two hours with chemical substance",1.4
same,The level of expressed mRNA in the presence of chemical substance/The level of expressed mRNA in the absence of chemical substance,"yeast gene YLR152C, incubated two hours with chemical substance",2.1
same,The level of expressed mRNA in the presence of chemical substance/The level of expressed mRNA in the absence of chemical substance,"yeast gene YLR194C, incubated two hours with chemical substance",0.9
same,The level of expressed mRNA in the presence of chemical substance/The level of expressed mRNA in the absence of chemical substance,"yeast gene YLR324W, incubated two hours with chemical substance",1.2
same,The level of expressed mRNA in the presence of chemical substance/The level of expressed mRNA in the absence of chemical substance,yeast gene YLR328W,4.8
same,The level of expressed mRNA in the presence of chemical substance/The level of expressed mRNA in the absence of chemical substance,"yeast gene YLR350W, incubated two hours with chemical substance",1.6
same,The level of expressed mRNA in the presence of chemical substance/The level of expressed mRNA in the absence of chemical substance,"yeast gene YLR387C, incubated two hours with chemical substance",1.9
same,The level of expressed mRNA in the presence of chemical substance/The level of expressed mRNA in the absence of chemical substance,yeast gene YLR460C,0.6
same,The level of expressed mRNA in the presence of chemical substance/The level of expressed mRNA in the absence of chemical substance,"yeast gene YML117W, incubated two hours with chemical substance",1.0
same,The level of expressed mRNA in the presence of chemical substance/The level of expressed mRNA in the absence of chemical substance,"yeast gene YMR009W, incubated two hours with chemical substance",1.2
same,The level of expressed mRNA in the presence of chemical substance/The level of expressed mRNA in the absence of chemical substance,yeast gene YMR040W,2.8
same,The level of expressed mRNA in the presence of chemical substance/The level of expressed mRNA in the absence of chemical substance,"yeast gene YMR067C, incubated two hours with chemical substance",1.4
same,The level of expressed mRNA in the presence of chemical substance/The level of expressed mRNA in the absence of chemical substance,yeast gene YMR090W,3.8
same,The level of expressed mRNA in the presence of chemical substance/The level of expressed mRNA in the absence of chemical substance,"yeast gene YMR095C, incubated two hours with chemical substance",0.7
same,The level of expressed mRNA in the presence of chemical substance/The level of expressed mRNA in the absence of chemical substance,"yeast gene YMR097C, incubated two hours with chemical substance",1.2
same,The level of expressed mRNA in the presence of chemical substance/The level of expressed mRNA in the absence of chemical substance,"yeast gene YMR102C, incubated two hours with chemical substance",6.3
same,The level of expressed mRNA in the presence of chemical substance/The level of expressed mRNA in the absence of chemical substance,"yeast gene YMR107W, incubated two hours with chemical substance",1.0
same,The level of expressed mRNA in the presence of chemical substance/The level of expressed mRNA in the absence of chemical substance,"yeast gene YMR180C, incubated two hours with chemical substance",2.4
same,The level of expressed mRNA in the presence of chemical substance/The level of expressed mRNA in the absence of chemical substance,"yeast gene YMR184W, incubated two hours with chemical substance",0.9
same,The level of expressed mRNA in the presence of chemical substance/The level of expressed mRNA in the absence of chemical substance,"yeast gene YMR191W, incubated two hours with chemical substance",1.0
same,The level of expressed mRNA in the presence of chemical substance/The level of expressed mRNA in the absence of chemical substance,"yeast gene YMR295C, incubated two hours with chemical substance",1.9
same,The level of expressed mRNA in the presence of chemical substance/The level of expressed mRNA in the absence of chemical substance,"yeast gene YMR316W, incubated two hours with chemical substance",0.7
same,The level of expressed mRNA in the presence of chemical substance/The level of expressed mRNA in the absence of chemical substance,"yeast gene YNL044W, incubated two hours with chemical substance",0.9
same,The level of expressed mRNA in the presence of chemical substance/The level of expressed mRNA in the absence of chemical substance,"yeast gene YNL074C, incubated two hours with chemical substance",1.7
same,The level of expressed mRNA in the presence of chemical substance/The level of expressed mRNA in the absence of chemical substance,"yeast gene YNL092W, incubated two hours with chemical substance",1.2
same,The level of expressed mRNA in the presence of chemical substance/The level of expressed mRNA in the absence of chemical substance,"yeast gene YNL115C, incubated two hours with chemical substance",9.1
same,The level of expressed mRNA in the presence of chemical substance/The level of expressed mRNA in the absence of chemical substance,"yeast gene YNL156C, incubated two hours with chemical substance",1.3
same,The level of expressed mRNA in the presence of chemical substance/The level of expressed mRNA in the absence of chemical substance,"yeast gene YNL234W, incubated two hours with chemical substance",1.3
same,The level of expressed mRNA in the presence of chemical substance/The level of expressed mRNA in the absence of chemical substance,"yeast gene YNL281W, incubated two hours with chemical substance",0.9
same,The level of expressed mRNA in the presence of chemical substance/The level of expressed mRNA in the absence of chemical substance,"yeast gene YNL305C, incubated two hours with chemical substance",1.1
same,The level of expressed mRNA in the presence of chemical substance/The level of expressed mRNA in the absence of chemical substance,"yeast gene YNR068C, incubated two hours with chemical substance",0.4
same,The level of expressed mRNA in the presence of chemical substance/The level of expressed mRNA in the absence of chemical substance,"yeast gene YOL032W, incubated two hours with chemical substance",2.1
same,The level of expressed mRNA in the presence of chemical substance/The level of expressed mRNA in the absence of chemical substance,"yeast gene YOL036W, incubated two hours with chemical substance",1.2
same,The level of expressed mRNA in the presence of chemical substance/The level of expressed mRNA in the absence of chemical substance,"yeast gene YOL047C, incubated two hours with chemical substance",1.5
same,The level of expressed mRNA in the presence of chemical substance/The level of expressed mRNA in the absence of chemical substance,"yeast gene YOL071W, incubated two hours with chemical substance",1.7
same,The level of expressed mRNA in the presence of chemical substance/The level of expressed mRNA in the absence of chemical substance,"yeast gene YOL082W, incubated two hours with chemical substance",1.8
same,The level of expressed mRNA in the presence of chemical substance/The level of expressed mRNA in the absence of chemical substance,"yeast gene YOL083W, incubated two hours with chemical substance",4.5
same,The level of expressed mRNA in the presence of chemical substance/The level of expressed mRNA in the absence of chemical substance,"yeast gene YOL117W, incubated two hours with chemical substance",2.0
same,The level of expressed mRNA in the presence of chemical substance/The level of expressed mRNA in the absence of chemical substance,"yeast gene YOL131W, incubated two hours with chemical substance",1.1
same,The level of expressed mRNA in the presence of chemical substance/The level of expressed mRNA in the absence of chemical substance,yeast gene YOL150C,5.2
same,The level of expressed mRNA in the presence of chemical substance/The level of expressed mRNA in the absence of chemical substance,"yeast gene YOL162W, incubated two hours with chemical substance",1.2
same,The level of expressed mRNA in the presence of chemical substance/The level of expressed mRNA in the absence of chemical substance,"yeast gene YOR019W, incubated two hours with chemical substance",1.3
same,The level of expressed mRNA in the presence of chemical substance/The level of expressed mRNA in the absence of chemical substance,"yeast gene YOR197W, incubated two hours with chemical substance",1.3
same,The level of expressed mRNA in the presence of chemical substance/The level of expressed mRNA in the absence of chemical substance,"yeast gene YPL087W, incubated two hours with chemical substance",4.3
same,The level of expressed mRNA in the presence of chemical substance/The level of expressed mRNA in the absence of chemical substance,"yeast gene YPL196W, incubated two hours with chemical substance",2.0
same,The level of expressed mRNA in the presence of chemical substance/The level of expressed mRNA in the absence of chemical substance,"yeast gene YPL206C, incubated two hours with chemical substance",1.8
same,The level of expressed mRNA in the presence of chemical substance/The level of expressed mRNA in the absence of chemical substance,"yeast gene YPL222W, incubated two hours with chemical substance",2.2
same,The level of expressed mRNA in the presence of chemical substance/The level of expressed mRNA in the absence of chemical substance,"yeast gene YPR023C, incubated two hours with chemical substance",1.4
same,The level of expressed mRNA in the presence of chemical substance/The level of expressed mRNA in the absence of chemical substance,"yeast gene YPR151C, incubated two hours with chemical substance",1.6
